In PubChem BioAssay (NCI):
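Values below derive from 48-hour exposures of cells grown in 96-well plates, with endpoints linearly interpolated between the two concentrations bracketing the appropriate inhibition level. At the TGI there is no net growth.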

Experiments:
Experiment in all cases: NCI-60 cell line screen, 48 h
786-0 renal = test system: 786-0 renal
A498 renal = test system: A498 renal
A549 NSCLC = test system: A549 NSCLC
ACHN renal = test system: ACHN renal
BT-549 breast = test system: BT-549 breast
CAKI-1 renal = test system: CAKI-1 renal
CCRF-CEM leukemia = test system: CCRF-CEM leukemia
COLO 205 colon = test system: COLO 205 colon
DU-145 prostate = test system: DU-145 prostate
EKVX NSCLC = test system: EKVX NSCLC
HCC-2998 colon = test system: HCC-2998 colon
HCT-116 colon = test system: HCT-116 colon
HCT-15 colon = test system: HCT-15 colon
HL-60(TB) leukemia = test system: HL-60(TB) leukemia
HOP-62 NSCLC = test system: HOP-62 NSCLC
HOP-92 NSCLC = test system: HOP-92 NSCLC
HS 578T breast = test system: HS 578T breast
HT29 colon = test system: HT29 colon
IGROV1 ovarian = test system: IGROV1 ovarian
K-562 leukemia = test system: K-562 leukemia
KM12 colon = test system: KM12 colon
LOX IMVI melanoma = test system: LOX IMVI melanoma
M14 melanoma = test system: M14 melanoma
MALME-3M melanoma = test system: MALME-3M melanoma
MCF7 breast = test system: MCF7 breast
MDA-MB-231 breast = test system: MDA-MB-231 breast
MDA-MB-435 = test system: MDA-MB-435
MDA-N = test system: MDA-N
MOLT-4 leukemia = test system: MOLT-4 leukemia
NCI-H226 lung = test system: NCI-H226 lung
NCI-H23 lung = test system: NCI-H23 lung
NCI-H460 lung = test system: NCI-H460 lung
NCI-H522 lung = test system: NCI-H522 lung
NCI/ADR-RES ovarian = test system: NCI/ADR-RES ovarian
OVCAR-3 ovarian = test system: OVCAR-3 ovarian
OVCAR-4 ovarian = test system: OVCAR-4 ovarian
OVCAR-5 ovarian = test system: OVCAR-5 ovarian
OVCAR-8 ovarian = test system: OVCAR-8 ovarian
PC-3 prostate = test system: PC-3 prostate
RPMI-8226 leukemia = test system: RPMI-8226 leukemia
RXF 393 renal = test system: RXF 393 renal
SF-268 CNS = test system: SF-268 CNS
SK-MEL-2 melanoma = test system: SK-MEL-2 melanoma
SK-MEL-28 melanoma = test system: SK-MEL-28 melanoma
SK-MEL-5 melanoma = test system: SK-MEL-5 melanoma
SK-OV-3 ovarian = test system: SK-OV-3 ovarian
SN12C renal = test system: SN12C renal
SNB-19 CNS = test system: SNB-19 CNS
SNB-75 CNS = test system: SNB-75 CNS
SW-620 colon = test system: SW-620 colon
T-47D breast = test system: T-47D breast
U251 CNS = test system: U251 CNS
UACC-257 melanoma = test system: UACC-257 melanoma
UACC-62 melanoma = test system: UACC-62 melanoma
SF-295 CNS = test system: SF-295 CNS
TK-10 renal = test system: TK-10 renal
UO-31 renal = test system: UO-31 renal
SF-539 CNS = test system: SF-539 CNS

`C[C@]12CC(c3ccccc3O1)C(C(N)=O)C(=O)N2` (stereo not given in full) showed a TGI (786-0 renal) greater than 100 µM, a TGI (A498 renal) greater than 100 µM and a TGI (A549 NSCLC) greater than 100 µM. For the same compound, the TGI (ACHN renal) was greater than 100 µM, the TGI (BT-549 breast) was greater than 100 µM and the TGI (CAKI-1 renal) was greater than 100 µM. The TGI (CCRF-CEM leukemia) was greater than 100 µM, the TGI (COLO 205 colon) was greater than 100 µM and the TGI (DU-145 prostate) was greater than 100 µM. The TGI (EKVX NSCLC) was greater than 100 µM, the TGI (HCC-2998 colon) was greater than 100 µM and the TGI (HCT-116 colon) was greater than 100 µM. It also gave a TGI (HCT-15 colon) greater than 100 µM, a TGI (HL-60(TB) leukemia) greater than 100 µM and a TGI (HOP-62 NSCLC) greater than 100 µM. The TGI (HOP-92 NSCLC) was greater than 100 µM, the TGI (HS 578T breast) was greater than 100 µM and the TGI (HT29 colon) was greater than 100 µM. For the same compound, the TGI (IGROV1 ovarian) was greater than 100 µM, the TGI (K-562 leukemia) was greater than 100 µM and the TGI (KM12 colon) was greater than 100 µM. It also gave a TGI (LOX IMVI melanoma) greater than 100 µM, a TGI (M14 melanoma) greater than 100 µM and a TGI (MALME-3M melanoma) greater than 100 µM. For the same compound, the TGI (MCF7 breast) was greater than 100 µM, the TGI (MDA-MB-231 breast) was greater than 100 µM and the TGI (MDA-MB-435) was greater than 100 µM. The TGI (MDA-N) was greater than 100 µM, the TGI (MOLT-4 leukemia) was greater than 100 µM and the TGI (NCI-H226 lung) was greater than 100 µM. The TGI (NCI-H23 lung) was greater than 100 µM, the TGI (NCI-H460 lung) was greater than 100 µM and the TGI (NCI-H522 lung) was greater than 100 µM. The TGI (NCI/ADR-RES ovarian) was greater than 100 µM, the TGI (OVCAR-3 ovarian) was greater than 100 µM and the TGI (OVCAR-4 ovarian) was greater than 100 µM. The TGI (OVCAR-5 ovarian) was greater than 100 µM, the TGI (OVCAR-8 ovarian) was greater than 100 µM and the TGI (PC-3 prostate) was greater than 100 µM. The TGI (RPMI-8226 leukemia) was greater than 100 µM, the TGI (RXF 393 renal) was greater than 100 µM and the TGI (SF-268 CNS) was greater than 100 µM. The TGI (SK-MEL-2 melanoma) was greater than 100 µM, the TGI (SK-MEL-28 melanoma) was greater than 100 µM and the TGI (SK-MEL-5 melanoma) was greater than 100 µM. It also gave a TGI (SK-OV-3 ovarian) greater than 100 µM, a TGI (SN12C renal) greater than 100 µM and a TGI (SNB-19 CNS) greater than 100 µM. It also gave a TGI (SNB-75 CNS) greater than 100 µM, a TGI (SW-620 colon) greater than 100 µM and a TGI (T-47D breast) greater than 100 µM. The TGI (U251 CNS) was greater than 100 µM, the TGI (UACC-257 melanoma) was greater than 100 µM and the TGI (UACC-62 melanoma) was greater than 100 µM.

With `OCCNc1ncnc2nc[nH]c12` the TGI (786-0 renal) was greater than 100 µM, the TGI (A498 renal) was greater than 100 µM and the TGI (A549 NSCLC) was greater than 100 µM. It also gave a TGI (ACHN renal) greater than 100 µM, a TGI (BT-549 breast) greater than 100 µM and a TGI (CAKI-1 renal) greater than 100 µM. It also gave a TGI (COLO 205 colon) greater than 100 µM, a TGI (DU-145 prostate) greater than 100 µM and a TGI (EKVX NSCLC) greater than 100 µM. For the same compound, the TGI (HCC-2998 colon) was greater than 100 µM, the TGI (HCT-116 colon) was greater than 100 µM and the TGI (HCT-15 colon) was greater than 100 µM. It also gave a TGI (HL-60(TB) leukemia) greater than 100 µM, a TGI (HOP-62 NSCLC) greater than 100 µM and a TGI (HOP-92 NSCLC) greater than 100 µM. For the same compound, the TGI (HS 578T breast) was greater than 100 µM, the TGI (HT29 colon) was greater than 100 µM and the TGI (IGROV1 ovarian) was greater than 100 µM. It also gave a TGI (K-562 leukemia) greater than 100 µM, a TGI (KM12 colon) greater than 100 µM and a TGI (LOX IMVI melanoma) greater than 100 µM. For the same compound, the TGI (M14 melanoma) was greater than 100 µM, the TGI (MALME-3M melanoma) was greater than 100 µM and the TGI (MCF7 breast) was greater than 100 µM. For the same compound, the TGI (MDA-MB-231 breast) was greater than 100 µM, the TGI (MDA-MB-435) was greater than 100 µM and the TGI (MDA-N) was greater than 100 µM. It also gave a TGI (MOLT-4 leukemia) greater than 100 µM, a TGI (NCI-H226 lung) greater than 100 µM and a TGI (NCI-H23 lung) greater than 100 µM. It also gave a TGI (NCI-H460 lung) greater than 100 µM, a TGI (NCI-H522 lung) greater than 100 µM and a TGI (NCI/ADR-RES ovarian) greater than 100 µM. It also gave a TGI (OVCAR-3 ovarian) greater than 100 µM, a TGI (OVCAR-4 ovarian) greater than 100 µM and a TGI (OVCAR-5 ovarian) greater than 100 µM. For the same compound, the TGI (OVCAR-8 ovarian) was greater than 100 µM, the TGI (PC-3 prostate) was greater than 100 µM and the TGI (RPMI-8226 leukemia) was greater than 100 µM. For the same compound, the TGI (RXF 393 renal) was greater than 100 µM, the TGI (SF-268 CNS) was greater than 100 µM and the TGI (SF-295 CNS) was greater than 100 µM. It also gave a TGI (SK-MEL-2 melanoma) greater than 100 µM, a TGI (SK-MEL-28 melanoma) greater than 100 µM and a TGI (SK-MEL-5 melanoma) greater than 100 µM. The TGI (SK-OV-3 ovarian) was greater than 100 µM, the TGI (SN12C renal) was greater than 100 µM and the TGI (SNB-19 CNS) was greater than 100 µM. It also gave a TGI (SNB-75 CNS) greater than 100 µM, a TGI (SW-620 colon) greater than 100 µM and a TGI (T-47D breast) greater than 100 µM. For the same compound, the TGI (TK-10 renal) was greater than 100 µM, the TGI (U251 CNS) was greater than 100 µM and the TGI (UACC-257 melanoma) was greater than 100 µM. The TGI (UACC-62 melanoma) was greater than 100 µM and the TGI (UO-31 renal) was greater than 100 µM.

`COC(=O)[C@@H](Nc1ccccc1)[C@@]1(C(=O)OC)SC12c1ccccc1-c1ccccc12` showed a TGI (786-0 renal) greater than 100 µM, a TGI (A498 renal) greater than 100 µM and a TGI (A549 NSCLC) greater than 100 µM. For the same compound, the TGI (ACHN renal) was greater than 100 µM, the TGI (BT-549 breast) was greater than 100 µM and the TGI (CAKI-1 renal) was greater than 100 µM. The TGI (CCRF-CEM leukemia) was greater than 100 µM, the TGI (COLO 205 colon) was greater than 100 µM and the TGI (DU-145 prostate) was greater than 100 µM. The TGI (EKVX NSCLC) was greater than 100 µM, the TGI (HCC-2998 colon) was greater than 100 µM and the TGI (HCT-116 colon) was greater than 100 µM. It also gave a TGI (HCT-15 colon) greater than 100 µM, a TGI (HL-60(TB) leukemia) greater than 100 µM and a TGI (HOP-62 NSCLC) greater than 100 µM. For the same compound, the TGI (HOP-92 NSCLC) was greater than 100 µM, the TGI (HS 578T breast) was greater than 100 µM and the TGI (HT29 colon) was greater than 100 µM. For the same compound, the TGI (IGROV1 ovarian) was greater than 100 µM, the TGI (K-562 leukemia) was greater than 100 µM and the TGI (KM12 colon) was greater than 100 µM. It also gave a TGI (LOX IMVI melanoma) greater than 100 µM, a TGI (M14 melanoma) greater than 100 µM and a TGI (MALME-3M melanoma) greater than 100 µM. It also gave a TGI (MCF7 breast) greater than 100 µM, a TGI (MDA-MB-231 breast) greater than 100 µM and a TGI (MDA-MB-435) greater than 100 µM. For the same compound, the TGI (MDA-N) was greater than 100 µM, the TGI (MOLT-4 leukemia) was greater than 100 µM and the TGI (NCI-H226 lung) was greater than 100 µM. It also gave a TGI (NCI-H23 lung) greater than 100 µM, a TGI (NCI-H522 lung) of 62.5 µM and a TGI (NCI/ADR-RES ovarian) greater than 100 µM. The TGI (OVCAR-3 ovarian) was greater than 100 µM, the TGI (OVCAR-4 ovarian) was greater than 100 µM and the TGI (OVCAR-5 ovarian) was greater than 100 µM. For the same compound, the TGI (OVCAR-8 ovarian) was greater than 100 µM, the TGI (PC-3 prostate) was greater than 100 µM and the TGI (RPMI-8226 leukemia) was greater than 100 µM. It also gave a TGI (RXF 393 renal) greater than 100 µM, a TGI (SF-268 CNS) greater than 100 µM and a TGI (SF-295 CNS) greater than 100 µM. The TGI (SF-539 CNS) was greater than 100 µM, the TGI (SK-MEL-2 melanoma) was greater than 100 µM and the TGI (SK-MEL-28 melanoma) was greater than 100 µM. The TGI (SK-MEL-5 melanoma) was greater than 100 µM, the TGI (SN12C renal) was greater than 100 µM and the TGI (SNB-19 CNS) was greater than 100 µM. For the same compound, the TGI (SW-620 colon) was greater than 100 µM, the TGI (T-47D breast) was greater than 100 µM and the TGI (TK-10 renal) was greater than 100 µM. It also gave a TGI (U251 CNS) greater than 100 µM, a TGI (UACC-257 melanoma) greater than 100 µM and a TGI (UACC-62 melanoma) greater than 100 µM. It also gave a TGI (UO-31 renal) greater than 100 µM.
